US10689346B2, “Human plasma kallikrein inhibitors” (BioCryst Pharmaceuticals, Inc., priority 2014, dated 2020)

Assays:
[1] = test system: hereditary angioedema (HAE); details: cited from earlier work
ischemic stroke = details: animal model of ischemic stroke; cited from earlier work
sepsis = sepsis patients; cited from earlier work
[2] = test system: LPS- or bacterial-induced sepsis; details: LPS- or bacterial-induced sepsis in animals; cited from earlier work
[3] = test system: middle cerebral artery occlusion (MCAO); details: mouse model of MCAO; cited from earlier work
human plasma kallikrein = human plasma kallikrein (Homo sapiens (Human), UniProt P03952); assay: Plasma Kallikrein Activity Assay; assay type: biochemical
human plasma kallikrein, sequence (P03952 whole entry, looked up): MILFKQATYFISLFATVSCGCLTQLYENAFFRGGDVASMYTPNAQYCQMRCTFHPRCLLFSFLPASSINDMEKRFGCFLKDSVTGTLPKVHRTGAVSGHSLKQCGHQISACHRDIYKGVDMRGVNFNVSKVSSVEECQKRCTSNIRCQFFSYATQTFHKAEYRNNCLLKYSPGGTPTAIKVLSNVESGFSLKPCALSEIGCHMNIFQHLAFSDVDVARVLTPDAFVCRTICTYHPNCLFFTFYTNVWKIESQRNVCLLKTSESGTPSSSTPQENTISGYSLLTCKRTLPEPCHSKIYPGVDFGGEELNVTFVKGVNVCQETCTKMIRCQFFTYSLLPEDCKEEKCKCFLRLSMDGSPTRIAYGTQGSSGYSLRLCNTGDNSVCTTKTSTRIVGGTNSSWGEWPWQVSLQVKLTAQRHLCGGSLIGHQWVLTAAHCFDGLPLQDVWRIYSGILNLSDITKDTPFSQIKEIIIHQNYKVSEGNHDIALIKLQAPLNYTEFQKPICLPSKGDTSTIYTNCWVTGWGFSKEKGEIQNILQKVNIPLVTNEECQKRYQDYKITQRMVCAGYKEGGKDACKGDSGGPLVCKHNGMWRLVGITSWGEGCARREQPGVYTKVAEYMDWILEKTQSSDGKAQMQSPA
human plasma kallikrein, sequence (P03952 whole entry partner, looked up): as the sequence (P03952 whole entry, looked up) above
Description: Plasma Kallikrein Activity Assay.
The effect of compounds of the invention on human plasma kallikrein activity was determined using the chromogenic substrates (DiaPharma Group, Inc., West Chester, Ohio, USA). In these experiments, 2 nM kallikrein (Enzyme Research Laboratories, South Bend, Ind., USA) was incubated with 80 μM S2302 (H-D-Pro-Phe-Arg-p-nitroaniline) in the absence or presence of increasing concentrations of compounds of the invention in a final volume of 200 μL Tris-HCl buffer (200 mM NaCl; 2.5 mM CaCl2; 50 mM Tris-HCl, pH 7.8).
Data were analyzed using SigmaPlot software (Systat Software, Inc., San Jose, Calif., USA) (Four Parameter Logistic Curve).

Molecule: ecallantide [DX-88]
- edema ([1]; patients with hereditary angioedema (HAE)): alleviates edema
- brain edema (ischemic stroke): reduced
- infarct volume (ischemic stroke): reduced
- neurological deficits (ischemic stroke): reduced

Molecule: C1-inhibitor: "a physiological inhibitor (C1-inhibitor)"; "reduced infarct size in a mouse model of middle cerebral artery occlusion" [Compound C1-inhibitor]
- clinical improvement (sepsis): Clinical improvement was observed
- lesions [2]: reduce lesions
- vascular permeability in multiple organs [2]: reduce vascular permeability
- infarct size [3]: reduced infarct size

Molecule: H-D-Pro-Phe-Arg-chloromethylketone [H-D-Pro-Phe-Arg-chloromethylketone (CMK)]
- lesions [2]: reduce lesions

Molecule: NC(N)=NCCC[C@@H](N)C(=O)N[C@@H](CCCN=C(N)N)C(=O)N1CCC[C@H]1C(=O)N1C[C@H](O)C[C@H]1C(=O)NCC(=O)N[C@@H](Cc1cccs1)C(=O)N[C@@H](CO)C(=O)N1Cc2ccccc2C[C@@H]1C(=O)N1[C@H](C(=O)N[C@@H](CCCN=C(N)N)C(=O)O)C[C@@H]2CCCC[C@@H]21 [Icatibant]
- efficacy in treating HAE ([1]; HAE): effective in treating HAE

Molecule: CN(C1CC1)C(c1cccc(N)c1)c1cccc(NC(=O)c2cc(C(F)(F)F)nn2-c2cccc(CN)c2)c1 (centres unmarked) [Compound 102b, 1-(3-(aminomethyl)phenyl)-N-(3-((3-aminophenyl)(cyclopropyl-methylamino)methyl)phenyl)-3-(trifluoromethyl)-1H-pyrazole-5-carboxamide]
- Ki (human plasma kallikrein): 0.1 to 50 nM
